Reference: article PMC9112550, “Optimization of the antimicrobial peptide Bac7 by deep mutational scanning” (BMC Biology, 2022)
Where “and” joins values, the source holds several entries; their conditions need not be identical. Equal entries are not always repeated. Entries after “also recorded” stand apart in the source; their conditions may differ. Where no end group is shown, it is not given here.

Tests used:
CD-1 mice = assay: Maximum tolerated dose / in vivo toxicity; design: species or system mouse
Method: CD-1 mice (7 weeks old, 27–28 g female) were used (Charles River, France). These animals were housed for a week of acclimation period before the experiment in a protected area in the ‘Centre de Zootechnie de l’Université de Bourgogne’ (Biosafety level 2 facility) and fed ad libitum according to the current recommendations by the European Institute of Health. Housing took place in rooms where a 12-h/12 h light/dark cycle is applied, the temperature ranges from 18 to 21°C and the relative humidity from 45 to 65%. The animal facility is authorized by the French authorities (Agreement N° C 21 464 04 EA). […]
For animal experiments, Bac7PS was synthesized at Genscript as acetate salt and with a purity of 92%. […] First, the maximum tolerated dose (MTD) for the peptide was determined by testing different peptide doses in 8 groups with 5 animals per group. The peptide solution was administered once by intraperitoneal (IP) injection with a volume of between 94 and 240 μl (depending on the weight of the animal and the dosage) and the animals were monitored for 2 h following the injection, then 6 to 8 h later, and then once or twice a day, depending on the clinical status, up to 5 days post-injection. […] As endpoint, the wellbeing and survival rate, on a twice daily based evaluation for up to 3 days, was monitored.

[1] = tested on: E. coli clinical isolates; assay type: cell-based; conditions: clinical isolates of E. coli (n=45) including MDR (ESBL, CRE); MHB II; 18 h, 37°C
E. coli BW25113 ΔsbmA = assay type: cell-based; conditions: MHB II, 18 h, 37°C, averaged (n>3)
E. coli ATCC 25922 = assay type: cell-based; conditions: E. coli ATCC 25922 quality control strain; MHB II; 18 h, 37°C; averaged (n>3)
E. coli TOP10 = assay type: cell-based
mouse red blood cells = assay: Hemolysis assay; assay type: cell-based; conditions: 1 h, 37°C, DPBS, relative to Triton-X100 lysis control, triplicates
Method: Mouse blood was obtained from the ETH Phenomics Center. The erythrocytes were isolated by centrifugation at 500 × g for 10 min and removal of the blood plasma. The cells were washed three times by gently resuspending them in an equal volume of DPBS followed by centrifugation. After the last resuspension, the cells were diluted 1:50 in DPBS. For the hemolysis assay, a log2-serial dilution of each peptide was prepared as described for the MIC but using DPBS and 96-well plates (U-bottom, PP, 650201, Greiner) with a final volume of 100 μl. As lysis control, 2.5% Triton-X100 in DPBS was used in well 10, well 11 served as non-treated control (no peptide added), and well 12 as blank. To each well of the dilution plate, 100 μl of the red blood cells suspension was added. The plate was incubated for 1 h at 37°C. After incubation, the plate was centrifuged at 500 × g for 10 min and 100 μl of the supernatant was transferred to a clean 96-well plate (F-bottom, PS, 655101, Greiner). The absorbance was measured at 540 nm using an Infinite M1000 PRO plate reader (Tecan) and corrected by the measurements from the untreated wells. The lysis of each peptide concentration was expressed relative to the lysis control (set as 100% lysis). The hemolysis assay was performed in biological triplicates.

## RRIRIRPPRLPRPRPRPYFMPRP [Bac7PS]
CD-1 mice; 40 mg kg^−1 IP, repeated 4 h after first dosing
  tolerability of a second administration: does not influence the survival of mice; also recorded: tolerated
CD-1 mice; intraperitoneal, 3 days, single administration, 5 animals per group
  maximal dose at which all CD-1 mice survived: 50 mg/kg
[1]
  MIC50: 2.9 µM
E. coli BW25113 ΔsbmA
  MIC: 14.4 µM
E. coli ATCC 25922
  MIC: 2.6 µM
E. coli TOP10
  reduction of the MIC vs Bac7_1-23: approximately twofold
E. coli TOP10; MHB II, 18 h, 37°C, averaged (n>3), <5% of OD of growth control
  MIC: 2.1 µM
Mouse red blood cells; 1xMIC (MIC measured for E. coli ATCC 25922)
  Hemolysis of mouse red blood cells: < 4% and 3.1%
Mouse red blood cells; 4xMIC (MIC measured for E. coli ATCC 25922)
  Hemolysis of mouse red blood cells: < 7% and 3.8%
